Among the data in PubChem BioAssay AID1259407 (Chemical Carcinogenesis Research Information System (CCRIS), 2018) are mutagenic call values, retold here.

The test system of the data set is CCRIS mutagenicity, Ames/micronucleus/aberration tests. Kind of data set: CCRIS mutagenicity studies.
Where [1] appears, read: Test System: AMES SALMONELLA TYPHIMURIUM, Strain/Indicator: TA98, Metabolic Activation: NONE, Method: PREINCUBATION
[2] abbreviates: Test System: AMES SALMONELLA TYPHIMURIUM, Strain/Indicator: TA98, Metabolic Activation: RAT, LIVER, S-9, PCB, Method: PREINCUBATION
Setting [3] is: Test System: AMES SALMONELLA TYPHIMURIUM, Strain/Indicator: TA100, Metabolic Activation: NONE, Method: PREINCUBATION
Where [4] appears, read: Test System: AMES SALMONELLA TYPHIMURIUM, Strain/Indicator: TA100, Metabolic Activation: RAT, LIVER, S-9, PCB, Method: PREINCUBATION
[5] abbreviates: Test System: AMES SALMONELLA TYPHIMURIUM, Strain/Indicator: TA98, Metabolic Activation: NONE, Method: STANDARD PLATE.
Where [6] appears, read: Test System: AMES SALMONELLA TYPHIMURIUM, Strain/Indicator: TA98, Metabolic Activation: RAT, LIVER, S-9, AROCLOR 1254, Method: STANDARD PLATE.

Calls of active or inactive are those of the source. How the calls were made is not given here.

With `Clc1nncc2ccccc12`, the mutagenic call under setting [1] was “inactive; negative”, the mutagenic call under setting [2] is “inactive; negative”, the mutagenic call under setting [3] is “inactive; negative” and the mutagenic call under setting [4] is “inactive; negative”.

`O=[N+]([O-])c1ccc2ccc3cccc4c(O)cc1c2c34`: the mutagenic call runs as follows: under setting [5], “active; positive”; under setting [6], “active; positive”.

On to `C[C@@H]1NCCc2cc(O)c(O)cc21`, for which the mutagenic call runs as follows: (End Point: IN VITRO CHROMOSOMAL ABERRATIONS, Test System: CHL FIBROBLAST CELLS, Metabolic Activation: NONE) “active; positive”; (End Point: IN VITRO CHROMOSOMAL ABERRATIONS, Test System: CHL FIBROBLAST CELLS, Metabolic Activation: RAT, LIVER, S-9 (5%)) “inactive; negative”.

In the case of `O=C1c2ccccc2C(=O)c2c1ccc(O[C@@H]1O[C@H](CO[C@@H]3OC[C@@H](O)[C@H](O)[C@H]3O)[C@@H](O)[C@H](O)[C@H]1O)c2O`, the mutagenic call under setting [1] was “inactive; negative”; the mutagenic call under setting [2] was “inactive; negative”; the mutagenic call under setting [3] is “inactive; negative”; the mutagenic call under setting [4] was “inactive; negative”; the mutagenic call (Test System: UDS PRIMARY RAT HEPATOCYTES, Strain/Indicator: THY INCORP, Metabolic Activation: NONE) was “active; positive”.

As to `Cc1c2cccc(C)c2nc2c1ccc1ccccc12`, the mutagenic call (Test System: AMES SALMONELLA TYPHIMURIUM, Strain/Indicator: TA97A, Metabolic Activation: NONE, Method: PREINCUBATION) is “inactive; negative”; the mutagenic call under setting [1] was “active; positive”; the mutagenic call under setting [3] is “inactive; negative”; the mutagenic call (Test System: AMES SALMONELLA TYPHIMURIUM, Strain/Indicator: TA102, Metabolic Activation: NONE, Method: PREINCUBATION) is “active; positive”.

Consider `O=C(Oc1ccccc1)c1ccccc1O`, for which the mutagenic call is, setting by setting: (Test System: AMES SALMONELLA TYPHIMURIUM, Strain/Indicator: TA98, Metabolic Activation: HAMSTER, LIVER, S-9, AROCLOR 1254 (10%), Method: PREINCUBATION) “inactive; negative”; under setting [1], “inactive; negative”; (Test System: AMES SALMONELLA TYPHIMURIUM, Strain/Indicator: TA98, Metabolic Activation: RAT, LIVER, S-9, AROCLOR 1254 (10%), Method: PREINCUBATION) “inactive; negative”; (Test System: AMES SALMONELLA TYPHIMURIUM, Strain/Indicator: TA100, Metabolic Activation: HAMSTER, LIVER, S-9, AROCLOR 1254 (10%), Method: PREINCUBATION) “inactive; negative”; under setting [3], “inactive; negative”; (Test System: AMES SALMONELLA TYPHIMURIUM, Strain/Indicator: TA100, Metabolic Activation: RAT, LIVER, S-9, AROCLOR 1254 (10%), Method: PREINCUBATION) “inactive; negative”. Moreover, the mutagenic call is, setting by setting: (Test System: AMES SALMONELLA TYPHIMURIUM, Strain/Indicator: TA1535, Metabolic Activation: HAMSTER, LIVER, S-9, AROCLOR 1254 (10%), Method: PREINCUBATION) “inactive; negative”; (Test System: AMES SALMONELLA TYPHIMURIUM, Strain/Indicator: TA1535, Metabolic Activation: NONE, Method: PREINCUBATION) “inactive; negative”; (Test System: AMES SALMONELLA TYPHIMURIUM, Strain/Indicator: TA1535, Metabolic Activation: RAT, LIVER, S-9, AROCLOR 1254 (10%), Method: PREINCUBATION) “inactive; negative”; (Test System: AMES SALMONELLA TYPHIMURIUM, Strain/Indicator: TA1537, Metabolic Activation: HAMSTER, LIVER, S-9, AROCLOR 1254 (10%), Method: PREINCUBATION) “inactive; negative”; (Test System: AMES SALMONELLA TYPHIMURIUM, Strain/Indicator: TA1537, Metabolic Activation: NONE, Method: PREINCUBATION) “inactive; negative”; (Test System: AMES SALMONELLA TYPHIMURIUM, Strain/Indicator: TA1537, Metabolic Activation: RAT, LIVER, S-9, AROCLOR 1254 (10%), Method: PREINCUBATION) “inactive; negative”.

Turning to `O=C(O)COc1ccc2ccccc2c1`, the mutagenic call is, setting by setting: (Test System: AMES SALMONELLA TYPHIMURIUM, Strain/Indicator: TA97, Metabolic Activation: NONE, Method: STANDARD PLATE) “inactive; negative”; (Test System: AMES SALMONELLA TYPHIMURIUM, Strain/Indicator: TA97, Metabolic Activation: RAT, LIVER, S-9, AROCLOR 1254, Method: STANDARD PLATE) “inactive; negative”; under setting [5], “inactive; negative”; under setting [6], “inactive; negative”; (Test System: AMES SALMONELLA TYPHIMURIUM, Strain/Indicator: TA100, Metabolic Activation: NONE, Method: STANDARD PLATE) “inactive; negative”; (Test System: AMES SALMONELLA TYPHIMURIUM, Strain/Indicator: TA100, Metabolic Activation: RAT, LIVER, S-9, AROCLOR 1254, Method: STANDARD PLATE) “inactive; negative”. Moreover, the mutagenic call (Test System: AMES SALMONELLA TYPHIMURIUM, Strain/Indicator: TA1535, Metabolic Activation: NONE, Method: STANDARD PLATE) was “inactive; negative” and the mutagenic call (Test System: AMES SALMONELLA TYPHIMURIUM, Strain/Indicator: TA1535, Metabolic Activation: RAT, LIVER, S-9, AROCLOR 1254, Method: STANDARD PLATE) is “inactive; negative”.

Take `CC(C)(Br)C(Br)CCl` (stereo not drawn): the mutagenic call is “inactive; negative” (Test System: AMES SALMONELLA TYPHIMURIUM, Strain/Indicator: TA100, Metabolic Activation: RAT, LIVER, MICROSOMES, PHENOBARBITAL, Method: PREINCUBATION) and “inactive; negative” (Test System: AMES SALMONELLA TYPHIMURIUM, Strain/Indicator: TA100, Metabolic Activation: RAT, LIVER, MICROSOMES, Method: PREINCUBATION).

For `COC(=O)Nc1cccc(OC(=O)Nc2cccc(C)c2)c1`, the mutagenic call was “inactive; negative” (Test System: AMES SALMONELLA TYPHIMURIUM, Strain/Indicator: TA97, Metabolic Activation: HAMSTER, LIVER, S-9, AROCLOR 1254 (30%), Method: PREINCUBATION); “inactive; negative” (Test System: AMES SALMONELLA TYPHIMURIUM, Strain/Indicator: TA97, Metabolic Activation: NONE, Method: PREINCUBATION); “inactive; negative” (Test System: AMES SALMONELLA TYPHIMURIUM, Strain/Indicator: TA97, Metabolic Activation: RAT, LIVER, S-9, AROCLOR 1254 (30%), Method: PREINCUBATION); “inactive; negative” (Test System: AMES SALMONELLA TYPHIMURIUM, Strain/Indicator: TA98, Metabolic Activation: HAMSTER, LIVER, S-9, AROCLOR 1254 (10 OR 30%), Method: PREINCUBATION); “active; positive” (Test System: AMES SALMONELLA TYPHIMURIUM, Strain/Indicator: TA98, Metabolic Activation: HAMSTER, LIVER, S-9, AROCLOR 1254 (30%), Method: PREINCUBATION); “inactive; negative” under setting [1]. Also, the mutagenic call is “inactive; negative” (Test System: AMES SALMONELLA TYPHIMURIUM, Strain/Indicator: TA98, Metabolic Activation: RAT, LIVER, S-9, AROCLOR 1254 (30%), Method: PREINCUBATION); “inactive; negative” (Test System: AMES SALMONELLA TYPHIMURIUM, Strain/Indicator: TA100, Metabolic Activation: HAMSTER, LIVER, S-9, AROCLOR 1254 (30%), Method: PREINCUBATION); “inactive; negative” under setting [3]; “inactive; negative” (Test System: AMES SALMONELLA TYPHIMURIUM, Strain/Indicator: TA100, Metabolic Activation: RAT, LIVER, S-9, AROCLOR 1254 (30%), Method: PREINCUBATION); “inactive; negative” (Test System: AMES SALMONELLA TYPHIMURIUM, Strain/Indicator: TA1538, Metabolic Activation: HAMSTER, LIVER, S-9, AROCLOR 1254 (10%), Method: PREINCUBATION); “active; positive” (Test System: AMES SALMONELLA TYPHIMURIUM, Strain/Indicator: TA1538, Metabolic Activation: HAMSTER, LIVER, S-9, AROCLOR 1254 (30%), Method: PREINCUBATION). For the same compound, the mutagenic call by setting is: (Test System: AMES SALMONELLA TYPHIMURIUM, Strain/Indicator: TA1538, Metabolic Activation: NONE, Method: PREINCUBATION) “inactive; negative”; (Test System: AMES SALMONELLA TYPHIMURIUM, Strain/Indicator: TA1538, Metabolic Activation: RAT, LIVER, S-9, AROCLOR 1254 (30%), Method: PREINCUBATION) “inactive; negative”.
